Laboratory results from patent US11123388B2, “Composition for preventing and treating inflammatory bowel disease” (GENUONE SCIENCES INC., priority 2015, dated 2021).
“And” between values parts separate entries of the source, which are not always exact repeats. Equal entries are not always repeated.

Columns and labels:
[1] = system: TNBS-induced Crohn's disease in ICR female mice; assay: Amelioration of Crohn's disease in TNBS animal model; format: in vivo
Method: 8. Effect of Ameliorating Crohn's Disease in TNBS Animal Model To construct an experimental model of inflammatory bowel disease, 7-week old ICR female mice (25 g to 27 g) were purchased from DBL Co., Ltd. (Eumseong, Korea), and the mice were given ad libitum access to solid feeds and water and allowed to adapt to a controlled environment with constant humidity (50±10%), constant temperature (22±2° C.), and 12-hour light-dark cycle for 1 week. […] The mice were fasted for 24 hours before injection of TNBS. […] The control drug (5-ASA) and extracts were dissolved in 0.5% carboxymethyl cellulose (CMC), and orally administered once daily for 5 days. The normal control group and the colitis-induced group were orally administered with 0.5% CMC. After 5 days of oral administration, mice were fasted until the next day and sacrificed. Each of their colons was excised from the cecum to the region immediately before the anus, and the length and external appearance of the excised colon were examined to determine the degree of weight loss, constipation, and intestinal edema, and the results were scored according to the criteria.

[2] = system: myeloperoxidase (MPO); assay: Myeloperoxidase (MPO) activity in colon tissue, TNBS animal model; format: in vivo; details: TNBS mice, 200 mg/kg
Method: 6. Effect of Inhibiting Oxidative Stress Through Measurement of Myeloperoxidase (MPO) Activity
200 μL of lysis buffer was added to 100 mg of colon tissue collected at the time of autopsy and homogenized and the supernatant obtained by centrifugation at 10,000 rpm for 20 minutes was used. First, capture antibody of MPO was added into a 96-well ELISA plate and allowed to react overnight. The plate was washed 6 times with 1×PBS (PBS-T) containing 0.05% Tween-20, and blocked with 1× assay diluent solution containing 2% BSA at room temperature for 1 hour. […] With respect to the levels of reactions of the plate, the absorbance was measured at 450 nm using a microplate reader (TECAN, Gr, Austria).
To construct an experimental model of inflammatory bowel disease, 7-week old ICR female mice (25 g to 27 g) were purchased from DBL Co., Ltd. (Eumseong, Korea), and the mice were given ad libitum access to solid feeds and water and allowed to adapt to a controlled environment with constant humidity (50±10%), constant temperature (22±2° C.), and 12-hour light-dark cycle for 1 week. […] Each of their colons was excised from the cecum to the region immediately before the anus, and the length and external appearance of the excised colon were examined to determine the degree of weight loss, constipation, and intestinal edema, and the results were scored according to the criteria.

[3] = system: TNF-α production in LPS-treated macrophages; assay: Inhibition of LPS-induced TNF-α production in macrophages (ELISA); format: cell-based; details: Macrophage, LPS 1 μg/mL, read-out: Effect of inhibiting TNF-α (%)
Method: 4. Effect of Inhibiting TNF-α Production The macrophages (American Type Culture Collections, Rockville, Mass., USA) cultured in a 24-well plate were pretreated with LPS (1 μg/mL) for 1 hour, treated with a extract (100 μg/mL), 20 mM 5-ASA (100 μg/mL) and 20 μM dexamethasone, and cultured for 24 hours, and the supernatant of cell was used for the experiment. First, capture antibody of TNF-α was added into a 96-well ELISA plate and allowed to react overnight. The plate was washed 6 times with 1×PBS (PBS-T) containing 0.05% Tween-20, and blocked with 1× assay diluent solution containing 2% BSA at room temperature for 1 hour. The plate was washed 6 times with 1×PBS-T and the supernatant or TNF-α standard protein was added thereto and allowed to react at room temperature for 2 hours. The plate was again was washed 6 times with 1×PBS-T, detection antibody was added thereto, and allowed to react at room temperature for 2 hours. The plate was again was washed 6 times with 1×PBS-T, avidin-HRP solution was added thereto, and allowed to react at room temperature for 30 minutes. […] With respect to the levels of reactions of the plate, the absorbance was measured at 450 nm using a microplate reader (TECAN, Gr, Austria).

[4] = system: IL-6 production in LPS-treated macrophages; assay: Inhibition of LPS-induced IL-6 production in macrophages (ELISA); format: cell-based; details: LPS 1 μg/mL
Method: 5. Effect of Inhibiting IL-6 Production The macrophages (American Type Culture Collections, Rockville, Mass., USA) cultured in a 24-well plate were pretreated with LPS (1 μg/mL) for 1 hour, treated with a extract (50 μg/mL), 20 mM 5-ASA (50 μg/mL) and 20 μM dexamethasone, and cultured for 24 hours, and the supernatant was used for the experiment. First, capture antibody of IL-6 was added into a 96-well ELISA plate and allowed to react overnight. The plate was washed 6 times with 1×PBS (PBS-T) containing 0.05% Tween-20, and blocked with 1× assay diluent solution containing 2% BSA at room temperature for 1 hour. […] The plate was again was washed 6 times with 1×PBS-T, detection antibody was added thereto, and allowed to react at room temperature for 2 hours. The plate was again was washed 6 times with 1×PBS-T, avidin-HRP solution was added thereto, and allowed to react at room temperature for 30 minutes. The plate was again was washed 6 times with 1×PBS-T, a TMB substrate solution was added thereto and allowed to react at room temperature for final 30 minutes, and a reaction stopping solution (1 M H3PO4) was added thereto to stop the reaction. With respect to the levels of reactions of the plate, the absorbance was measured at 450 nm using a microplate reader (TECAN, Gr, Austria).

[5] = system: U937 cell adhesion to the HT-29 intestinal epithelial cells; assay: Inhibition of monocyte (U937) adhesion to TNF-α-stimulated intestinal epithelial cells (HT-29); format: cell-based, human; details: 5-ASA 20 mM (positive control), TNF-α 100 ng/mL, 24 h
Method: 3. Effect of Inhibiting Monocyte Adhesion Ability in Intestinal Epithelial Cells Human intestinal epithelial cell line HT-29 cells (American Type Culture Collections, Rockville, Mass., USA) and human monocyte cell line U937 cells (ATCC, Rockville, Mass., USA) were cultured in RPMI 1640 containing fetal bovine serum (FBS) and 1% penicillin/streptomycin, and the cell line was maintained under the environment of 95% air and 5% CO2 at 37° C. […] The HT-29 cells (2×10^6 cells/well), which were cultured in a 48-well plate for 24 hours, were simultaneously treated with a extract (100 μg/mL) while treating with TNF-α (100 ng/mL), and cultured for 24 hours. In particular, 20 mM 5-aminosalicylic acid (5-ASA) was used as the positive control. Then, HT-29 cells were co-cultured along with U937 cells (5×10^5 cells/well), which were labeled with BCECF/AM at 37° C. for 30 minutes. Unattached U937 cells were removed and washed twice with PBS. The HT-29 cells to which U937 cells were attached were dissolved using 0.1% Triton X-100 which was dissolved in 0.1 mol/L Tris. The fluorescence of these lysates was measured using the luminance at 485 nm and 520 nm using a microplate reader (TECAN, Gr, Austria).

[6] = system: NO production in HT-29 cells; assay: Inhibition of NO production in HT-29 cells (Griess); format: cell-based, human; details: 48 h
Method: 2. Effect of Inhibition of NO Production Human intestinal epithelial cell line HT-29 cells (American Type Culture Collections, Rockville, Mass., USA) were cultured in Dulbecco's Modified Eagle's Medium (DMEM) along with 10% Fatal bovine serum (FBS), 1% Antibiotic-Antimycotic (GIBCO, Cat No. 15240-062) in 100 mm/60.1 cm^2 culture dish at 37° C., 5% CO2 conditions. […] The supernatant of cell was collected and used as a sample for the test. The test analysis was performed using the Total NO/Nitrite/Nitrate ELISA kit (R&D systems, Cat. #KGE001) according to the manufacturer's manual. Briefly, the test was performed in the following sequence: the cell culture which was grown after treatment with the sample was dispensed into a 96-well plate in an amount of 50 μL/well, treated with Griess Reagent, reacted at room temperature for 10 minutes, and the absorbance was measured at 540 nm.

[7] = system: dextran sodium sulfate (DSS)-induced colitis in C57BL/6 female mice; assay: Amelioration of colitis in DSS animal model; format: in vivo; set-up: DAI (disease activity index): scale not given here; Colon Length: unit not given here
Method: 7. Effect of Ameliorating Colitis in DSS Animal Model To construct an experimental model of inflammatory bowel disease, 6-week old C57BL/6 female mice (17 g to 19 g) were purchased from DBL Co., Ltd. (Eumseong, Korea), and the mice were given ad libitum access to solid feeds and water and allowed to adapt to a controlled environment with constant humidity (50%), constant temperature (22° C.), and 12-hour light-dark cycle for 1 week. […] The control drug (5-ASA) and extracts were dissolved in 0.5% carboxymethyl cellulose (CMC), and then orally administered once daily for 7 days along with 3% dextran sodium sulfate (DSS), and the normal control group and the colitis-induced group were orally administered with 0.5% CMC. The colitis-induced group, the control drug-treated group, and the extract-treated group were given ad libitum access to 3% DSS for 1 week, and the normal control group was given ad libitum access to water. Then, the mice were sacrificed on the 8th day, and each of their colons was excised from the cecum to the region immediately before the anus, and the length and external appearance of the excised colon were examined to determine the degree of weight loss, diarrhea, and […], and the results were scored according to the criteria.

[8] = 200 mg/kg oral once daily 5 days, control drug 5-ASA 200 mg/kg, listed as Control drug-treated Group
[9] = 200 mg/kg oral once daily 5 days, control drug 5-ASA 200 mg/kg, listed as control-drug treated group
[10] = oral once daily 7 days, control drug 5-ASA 200 mg/kg, listed as Control drug-treated Group

SMILES: Nc1ccc(O)c(C(=O)O)c1 [5-ASA, 5-aminosalicylic acid]
- reduction of weight of colon per colon length compared to the Crohn's disease-induced group ([1]; 200 mg/kg): almost no difference
- Colon Length (cm) ([1]; 200 mg/kg oral once daily 5 days, control drug 5-ASA 200 mg/kg): 8.33 ± 0.22 cm
- Colon Length [1, 8]: 8.28 and 8.33 ± 0.22
- DAI (disease activity index) [1, 8]: 10.56 ± 1.40 and 8.20
- Weight per Area (colon weight per colon length) [1, 8]: 67.67 ± 9.30 and 46.55
- Colon Length [1, 9]: 8.27
- DAI (disease activity index) [1, 9]: 6.30
- Weight per Area (colon weight per colon length) [1, 9]: 48.66
- effect of improvement of disease activity index compared to the Crohn's disease-induced group ([1]; 200 mg/kg, listed as Control drug-treated Group, 200 mg/kg): 7% and 9%
- difference in colon weight per colon length compared to the Crohn's disease-induced group ([1]; 5-ASA 200 mg/kg): about 6.5 mg/cm
- decrease of MPO activity compared to the Crohn's disease-induced group [2]: 15%
- inhibition at 20000 µM ([3]; 5-ASA 20 mM): 11.1%
- Effect of inhibiting IL-6 (%) ([4]; 5-ASA 20 mM): 67.68% and 50.98%
- Effect of inhibiting IL-6 (%) ([4]; 5-ASA 20 mM, listed as 5ASA): 49.89% and 49.35%
- inhibition at 20000 µM ([4]; Macrophage, 5-ASA 20 mM, read-out: Effect of inhibiting IL-6 (%)): 52.8%
- Effect of inhibiting adhesion (%) [5]: 24.48%
- inhibition at 20000 µM ([5]; Homo sapiens, read-out: Effect of inhibiting adhesion (%)): 18.9%
- inhibitory effect against NO production [6]: 37%
- effect of improvement of disease activity index compared to the colitis-induced group [7]: 45%
- increase of the colon length compared to the colitis-induced group [7]: 3.6%
- recovery of intestinal mucosa (immunostaining of intestinal mucosal tissues) [7]: partially restored
- Colon Length [7, 10]: 5.42 and 5.77 and 5.45 and 5.31 ± 0.16
- Colon Length (cm) [7, 10]: 5.42 cm and 5.31 ± 0.16 cm
- DAI (disease activity index) [7, 10]: 4.50 and 7.48 and 6.88 ± 0.44 and 5.75 and 5.33
- Weight per Area (colon weight per colon length) [7, 10]: 30.66 ± 0.76 and 32.52 and 31.42

SMILES: C[C@@H]1C[C@H]2[C@@H]3CCC4=CC(=O)C=C[C@]4(C)[C@@]3(F)[C@@H](O)C[C@]2(C)[C@@]1(O)C(=O)CO [Dexamethasone, dexamethasone]
- inhibition at 20 µM ([3]; dexamethasone 20 μM): 38.5%
- inhibition at 20 µM ([4]; Macrophage, dexamethasone 20 μM, read-out: Effect of inhibiting IL-6 (%)): 49.9%
